Test results from ChEMBL document CHEMBL3352319, “Identification and pharmacological characterization of 3,6-diazabicyclo[3.1.1]heptane-3-carboxamides as novel ligands for the α4β2 and α6/α3β2β3 nicotinic acetylcholine receptors (nAChRs)” (Eur J Med Chem, 2014).

Columns and labels:
[1] = biological target: T1, Neuronal acetylcholine receptor; alpha3/alpha6/beta2/beta3 (Homo sapiens, UniProt P17787+P32297+Q05901+Q15825); test: Agonist activity at human alpha6/alpha3beta2beta3 nAChR transfected in CHO cells assessed as calcium flux by FLIPR assay; format: cell-based
T1 sequence (P17787 whole entry, canonical isoform): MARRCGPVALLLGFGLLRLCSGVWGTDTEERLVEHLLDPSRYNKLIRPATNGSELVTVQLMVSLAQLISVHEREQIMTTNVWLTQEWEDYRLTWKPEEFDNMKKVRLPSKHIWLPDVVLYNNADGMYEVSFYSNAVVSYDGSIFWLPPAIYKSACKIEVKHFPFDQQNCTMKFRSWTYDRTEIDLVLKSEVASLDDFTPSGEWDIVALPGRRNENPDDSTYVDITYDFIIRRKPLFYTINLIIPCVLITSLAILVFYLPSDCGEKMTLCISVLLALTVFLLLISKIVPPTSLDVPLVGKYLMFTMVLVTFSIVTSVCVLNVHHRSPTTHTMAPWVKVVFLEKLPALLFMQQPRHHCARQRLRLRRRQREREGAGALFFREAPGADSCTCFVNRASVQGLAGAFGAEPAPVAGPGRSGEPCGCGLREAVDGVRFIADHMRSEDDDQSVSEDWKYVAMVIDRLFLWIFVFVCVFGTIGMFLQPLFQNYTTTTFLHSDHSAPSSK
T1 sequence (P32297 whole entry, canonical isoform): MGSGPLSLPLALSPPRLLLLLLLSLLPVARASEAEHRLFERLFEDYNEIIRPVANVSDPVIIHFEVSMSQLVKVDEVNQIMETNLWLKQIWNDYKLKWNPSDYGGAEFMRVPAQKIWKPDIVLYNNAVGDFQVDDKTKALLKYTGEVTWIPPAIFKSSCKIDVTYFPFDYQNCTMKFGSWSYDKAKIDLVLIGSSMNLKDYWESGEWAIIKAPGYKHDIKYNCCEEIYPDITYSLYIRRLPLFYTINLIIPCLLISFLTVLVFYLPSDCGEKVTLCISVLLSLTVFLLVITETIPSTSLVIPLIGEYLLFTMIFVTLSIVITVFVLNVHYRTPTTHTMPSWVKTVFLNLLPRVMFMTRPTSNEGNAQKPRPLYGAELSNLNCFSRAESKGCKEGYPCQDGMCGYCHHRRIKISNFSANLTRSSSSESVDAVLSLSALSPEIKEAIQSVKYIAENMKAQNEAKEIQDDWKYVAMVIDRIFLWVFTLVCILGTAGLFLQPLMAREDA
T1 sequence (Q15825 whole entry, canonical isoform): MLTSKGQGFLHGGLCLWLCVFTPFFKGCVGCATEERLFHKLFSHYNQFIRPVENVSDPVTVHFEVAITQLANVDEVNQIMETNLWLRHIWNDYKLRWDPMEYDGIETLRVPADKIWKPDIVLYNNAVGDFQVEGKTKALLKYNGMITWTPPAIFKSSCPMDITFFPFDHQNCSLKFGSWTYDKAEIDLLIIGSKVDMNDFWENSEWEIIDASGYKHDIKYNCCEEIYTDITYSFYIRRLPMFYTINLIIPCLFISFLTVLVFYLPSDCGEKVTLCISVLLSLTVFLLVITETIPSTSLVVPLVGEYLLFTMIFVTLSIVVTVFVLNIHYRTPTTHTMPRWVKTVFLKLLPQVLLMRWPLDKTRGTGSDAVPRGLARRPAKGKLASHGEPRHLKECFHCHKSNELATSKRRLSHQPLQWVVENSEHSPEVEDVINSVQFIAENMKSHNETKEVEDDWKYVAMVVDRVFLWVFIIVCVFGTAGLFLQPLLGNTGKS
T1 sequence (Q05901 whole entry, canonical isoform): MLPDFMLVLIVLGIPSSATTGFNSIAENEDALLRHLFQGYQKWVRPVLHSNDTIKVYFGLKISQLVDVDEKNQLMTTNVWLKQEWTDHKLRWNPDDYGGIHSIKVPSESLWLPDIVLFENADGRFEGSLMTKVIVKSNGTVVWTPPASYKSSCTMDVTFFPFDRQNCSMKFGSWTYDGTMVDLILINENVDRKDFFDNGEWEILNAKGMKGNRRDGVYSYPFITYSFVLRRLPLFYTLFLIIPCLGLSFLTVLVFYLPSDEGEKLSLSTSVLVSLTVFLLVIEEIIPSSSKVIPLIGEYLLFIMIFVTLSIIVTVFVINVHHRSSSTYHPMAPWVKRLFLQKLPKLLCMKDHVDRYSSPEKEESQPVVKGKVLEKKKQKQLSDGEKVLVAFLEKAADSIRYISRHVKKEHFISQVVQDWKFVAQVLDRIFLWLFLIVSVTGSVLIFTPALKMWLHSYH

[2] = biological target: T2, Neuronal acetylcholine receptor; alpha4/beta2 (Homo sapiens, UniProt P17787+P43681); test: Agonist activity at human alpha4beta2 nAChR low sensitivity isoform transfected in SH-EP1 cells assessed as calcium flux by FLIPR assay relative to control; format: cell-based
T2 sequence (P17787 whole entry, canonical isoform): as the sequence (P17787 whole entry, canonical isoform) above
T2 sequence (P43681 whole entry, canonical isoform): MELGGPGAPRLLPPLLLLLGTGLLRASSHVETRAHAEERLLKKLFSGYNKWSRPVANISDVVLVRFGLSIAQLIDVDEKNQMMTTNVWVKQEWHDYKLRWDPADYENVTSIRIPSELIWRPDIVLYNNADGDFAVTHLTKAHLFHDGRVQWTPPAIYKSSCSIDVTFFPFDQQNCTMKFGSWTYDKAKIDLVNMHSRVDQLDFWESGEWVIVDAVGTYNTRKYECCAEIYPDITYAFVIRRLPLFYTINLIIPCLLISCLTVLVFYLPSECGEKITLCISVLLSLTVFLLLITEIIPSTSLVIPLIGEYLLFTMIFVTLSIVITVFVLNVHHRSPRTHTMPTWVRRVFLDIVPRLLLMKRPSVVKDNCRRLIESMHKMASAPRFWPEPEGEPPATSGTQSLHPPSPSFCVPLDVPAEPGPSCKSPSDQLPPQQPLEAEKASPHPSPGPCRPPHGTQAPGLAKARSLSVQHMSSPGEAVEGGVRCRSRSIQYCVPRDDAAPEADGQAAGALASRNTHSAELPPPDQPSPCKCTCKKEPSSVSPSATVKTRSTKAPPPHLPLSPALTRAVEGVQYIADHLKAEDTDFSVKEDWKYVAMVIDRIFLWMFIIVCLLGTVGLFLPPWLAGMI

[3] = biological target: T2, Neuronal acetylcholine receptor; alpha4/beta2; test: Agonist activity at human alpha4beta2 nAChR low sensitivity isoform transfected in SH-EP1 cells assessed as calcium flux by FLIPR assay; format: cell-based
[4] = biological target: T2, Neuronal acetylcholine receptor; alpha4/beta2; test: Agonist activity at human alpha4beta2 nAChR high sensitivity isoform transfected in SH-EP1 cells assessed as calcium flux by FLIPR assay relative to control; format: cell-based
[5] = biological target: T2, Neuronal acetylcholine receptor; alpha4/beta2; test: Agonist activity at human alpha4beta2 nAChR transfected in SH-EP1 cells assessed as calcium flux by FLIPR assay; format: cell-based
[6] = biological target: T2, Neuronal acetylcholine receptor; alpha4/beta2; test: Displacement of [3H] nicotine from human alpha4beta2 nAChR transfected in SH-EP1 cells by liquid scintillation counting; format: cell-based
[7] = biological target: Neuronal acetylcholine receptor; alpha3/alpha6/beta2/beta3 (Homo sapiens) (UniProt P17787+P32297+Q15825+Q05901); test: Agonist activity at human alpha6/alpha3beta2beta3 nAChR transfected in CHO cells assessed as calcium flux by FLIPR assay relative to control; format: cell-based
[8] = biological target: T1, Neuronal acetylcholine receptor; alpha3/alpha6/beta2/beta3; test: Displacement of [3H]epibatidine from human alpha6/alpha3beta2beta3 nAChR transfected in CHO cells by liquid scintillation counting; format: cell-based
[9] = Tmax in po dosed rat; format: ADME, organism-based; settings: in vivo
[10] = Oral bioavailability in rat; format: ADME, organism-based; settings: in vivo
[11] = organism: Rattus norvegicus; test: Inhibition of L-dopa-induced abnormal involuntary movement in rat; format: functional
[12] = Drug uptake in po dosed rat brain after 4 hrs by LC-MS/MS analysis; format: ADME, organism-based; settings: read-out: Drug uptake
[13] = Drug uptake in po dosed rat plasma after 0.5 hrs by LC-MS/MS analysis; format: ADME, organism-based
[14] = Ratio of drug level in po dosed rat brain to plasma after 4 hrs by LC-MS/MS analysis; format: ADME, organism-based; settings: read-out: BPR
[15] = Drug uptake in po dosed rat plasma after 1 hrs by LC-MS/MS analysis; format: ADME, organism-based
[16] = Half life in po dosed rat; format: ADME, organism-based; settings: in vivo
[17] = Ratio of drug level in po dosed rat brain to plasma after 1 hrs by LC-MS/MS analysis; format: ADME, organism-based; settings: read-out: BPR
[18] = Drug uptake in po dosed rat plasma after 4 hrs by LC-MS/MS analysis; format: ADME, organism-based
[19] = Drug uptake in po dosed rat brain after 1 hrs by LC-MS/MS analysis; format: ADME, organism-based; settings: read-out: Drug uptake
[20] = Ratio of drug level in po dosed rat brain to plasma after 0.5 hrs by LC-MS/MS analysis; format: ADME, organism-based; settings: read-out: BPR
[21] = Cmax in po dosed rat; format: ADME, organism-based; set-up: route oral; settings: in vivo
[22] = Drug uptake in po dosed rat brain after 0.5 hrs by LC-MS/MS analysis; format: ADME, organism-based; settings: read-out: Drug uptake

Compound: O=C(C1CCC1)N1CC2CC(C1)N2
- EC50 [1]: 370 nM
- Emax [2]: 100%
- EC50 [3]: 11 µM
- Emax [4]: 99%
- EC50 [5]: 2900 nM
- Ki [6]: 16 nM
- Emax [7]: 80%
- Ki [8]: 240 nM

Compound: CCC(=O)N1CC2CC(C1)N2
- EC50 [1]: 180 nM
- Emax [2]: 98%
- EC50 [3]: 5.9 µM
- Emax [4]: 110%
- EC50 [5]: 490 nM
- Ki [6]: 6 nM
- Emax [7]: 120%
- Ki [8]: 190 nM

Compound: O=C([C@@H]1C[C@@H]1F)N1CC2CC(C1)N2
- EC50 [1]: 88 nM
- Emax [2]: 120%
- EC50 [3]: 0.37 µM
- Emax [4]: 110%
- EC50 [5]: 120 nM
- Ki [6]: 1.7 nM
- Emax [7]: 120%
- Ki [8]: 55 nM

Compound: O=C(CC1C=CCC1)N1CC2CC(C1)N2 (configuration not stated)
- EC50 [1]: 21000 nM
- Emax [2]: 89%
- EC50 [3]: 37 µM
- Emax [4]: 94%
- EC50 [5]: 14000 nM
- Ki [6]: 53 nM
- Emax [7]: 47%
- Ki [8]: 2500 nM

Compound: CCCC(=O)N1CC2CC(C1)N2
- EC50 [1]: 300 nM
- Emax [2]: 120%
- EC50 [3]: 0.85 µM
- Emax [4]: 110%
- EC50 [5]: 580 nM
- Ki [6]: 14 nM
- Emax [7]: 92%
- Ki [8]: 350 nM

Compound: O=C(C1CC1)N1CC2CC(C1)N2
- EC50 [1]: 80 nM
- Tmax [9]: 1 h
- bioavailability [10]: 82.6%
- Emax [2]: 110%
- inhibition (INH) [11]: 24%
- concentration at 4 h [12]: 20.2 ng/g
- concentration at 0.5 h [13]: 123 ng/mL
- Kp at 4 h [14]: 0.32
- concentration at 1 h [15]: 174 ng/mL
- half-life [16]: 94.8 min
- Kp at 1 h [17]: 0.31
- EC50 [3]: 0.85 µM
- concentration at 4 h [18]: 62.2 ng/mL
- concentration at 1 h [19]: 53.7 ng/g
- Emax [4]: 110%
- EC50 [5]: 140 nM
- Kp at 0.5 h [20]: 0.22
- Cmax [21]: 200 ng/mL
- Emax [7]: 100%
- concentration at 0.5 h [22]: 39.5 ng/g
- Ki [8]: 21 nM

Compound: O=C([C@@H]1C[C@H]1F)N1CC2CC(C1)N2
- EC50 [1]: 53 nM
- Emax [2]: 110%
- EC50 [3]: 0.87 µM
- Emax [4]: 110%
- EC50 [5]: 120 nM
- Emax [7]: 130%
- Ki [8]: 43 nM

Compound: CC1(C)CC1C(=O)N1CC2CC(C1)N2 (configuration not stated)
- EC50 [1]: 540 nM
- Emax [2]: 96%
- EC50 [3]: 5.7 µM
- Emax [4]: 92%
- EC50 [5]: 2200 nM
- Ki [6]: 3.9 nM
- Emax [7]: 73%
- Ki [8]: 250 nM

Compound: O=C(C1CC1)N1CC2CC1CN2 (configuration not stated)
- Ki [6]: 2800 nM
- Ki [8]: 10000 nM

Compound: CC(=O)N1CC2CC(C1)N2
- EC50 [1]: 750 nM
- Emax [2]: 94%
- EC50 [3]: 9.7 µM
- Emax [4]: 95%
- EC50 [5]: 5100 nM
- Ki [6]: 150 nM
- Emax [7]: 100%
- Ki [8]: 610 nM

Compound: O=C([C@H]1C[C@H]1F)N1CC2CC(C1)N2
- EC50 [1]: 62 nM
- Emax [2]: 110%
- EC50 [3]: 1.5 µM
- Emax [4]: 110%
- EC50 [5]: 210 nM
- Emax [7]: 130%
- Ki [8]: 27 nM

Compound: O=C(C1CC1)N1CC2CCC(C1)N2
- Ki [6]: 320 nM
- Ki [8]: 7200 nM

Compound: C[C@H]1C[C@H]1C(=O)N1CC2CC(C1)N2
- EC50 [1]: 2000 nM
- Emax [2]: 87%
- EC50 [3]: 5.8 µM
- Emax [4]: 93%
- EC50 [5]: 2200 nM
- Ki [6]: 7 nM
- Emax [7]: 60%
- Ki [8]: 170 nM

Compound: C[C@@H]1C[C@@H]1C(=O)N1CC2CC(C1)N2
- EC50 [1]: 920 nM
- Emax [2]: 88%
- EC50 [3]: 3.8 µM
- Emax [4]: 97%
- EC50 [5]: 2100 nM
- Emax [7]: 87%
- Ki [8]: 92 nM

Compound: O=C(C1CCCC1)N1CC2CC(C1)N2
- EC50 [1]: 1600 nM
- Emax [2]: 48%
- EC50 [3]: 29 µM
- Emax [4]: 68%
- EC50 [5]: 11000 nM
- Ki [6]: 160 nM
- Emax [7]: 62%
- Ki [8]: 2900 nM

Compound: CC(C)C(=O)N1CC2CC(C1)N2
- EC50 [1]: 16000 nM
- Emax [2]: 86%
- EC50 [3]: 20 µM
- Emax [4]: 71%
- EC50 [5]: 19000 nM
- Ki [6]: 130 nM
- Emax [7]: 45%
- Ki [8]: 580 nM

Compound: C[C@@H]1C[C@H]1C(=O)N1CC2CC(C1)N2
- EC50 [1]: 51 nM
- Emax [2]: 110%
- EC50 [3]: 2.9 µM
- Emax [4]: 110%
- EC50 [5]: 190 nM
- Emax [7]: 110%
- Ki [8]: 14 nM

Compound: O=C(C1CC=CC1)N1CC2CC(C1)N2
- EC50 [1]: 1900 nM
- Emax [2]: 93%
- EC50 [3]: 17 µM
- Emax [4]: 95%
- EC50 [5]: 6600 nM
- Ki [6]: 51 nM
- Emax [7]: 99%
- Ki [8]: 1100 nM

Compound: C[C@H]1C[C@@H]1C(=O)N1CC2CC(C1)N2
- EC50 [1]: 3800 nM
- Emax [2]: 67%
- EC50 [3]: 14 µM
- Emax [4]: 85%
- EC50 [5]: 9100 nM
- Ki [6]: 17 nM
- Emax [7]: 64%
- Ki [8]: 310 nM

Compound: O=C([C@H]1C[C@@H]1F)N1CC2CC(C1)N2
- EC50 [1]: 620 nM
- Emax [2]: 100%
- EC50 [3]: 2.8 µM
- Emax [4]: 100%
- EC50 [5]: 850 nM
- Ki [6]: 5.4 nM
- Emax [7]: 85%
- Ki [8]: 490 nM

Compound: O=C(C1CC1)N1CCNCC1
- Ki [6]: 6000 nM
- Ki [8]: 26000 nM

Compound: O=C(C1CC1(F)F)N1CC2CC(C1)N2 (configuration not stated)
- EC50 [1]: 100 nM
- Emax [2]: 94%
- EC50 [3]: 2.3 µM
- Emax [4]: 100%
- EC50 [5]: 1000 nM
- Ki [6]: 5.9 nM
- Emax [7]: 110%
- Ki [8]: 75 nM
